According to PMC5473904, “Epigenetic and antitumor effects of platinum(IV)-octanoato conjugates” (Scientific Reports, 2017):

What was measured:
[1] = test system: DNMT enzymes in HCT-116 cells; assay: DNMT activity in nuclear extracts of treated cells; type: cell-based, human; settings: 24 h
Description: In these experiments, the total activity of DNMT enzymes was determined in nuclear extracts prepared from HCT-116 cells which were treated with the platinum compounds, free OA or decitabine for 24 h (Fig. 4B).
Human colon carcinoma cells (HCT-116) were seeded in 100 mm culture dishes at the density 1.5 × 10^6 cells/dish. Cells were harvested after 24 h of incubation with the compounds tested in the present work (1 µM). Nuclear extracts from the pellets were separated using EpiQuik Nuclear extraction kit I (Epigentek, NY) according to manufacturer’s instructions. Quantification of nuclear proteins was analyzed with the standard Bradford assay. The activity of DNMT enzymes was analyzed using the EpiQuik DNMT activity/inhibition assay Ultra kit (Epigentek, NY), according to the manufacturer´s protocol. Briefly, 10 µg of total nuclear protein was analyzed for its DNMT activity. The reaction time with a universal DNMT substrate stably coated onto microplate wells was 120 min at 37 °C. The final signal at the end of the ELISA reaction was detected at 450 nm (reference 620 nm). DNMT activity was normalized to controls and expressed in the percent or absolute values as OD h^−1 mg^−1, calculated as described in the manufacturer’s manual.

DNA from A2780 cells = assay: Platinum content on DNA isolated from treated cells (ICP-MS); type: cell-based, human; settings: for Platinum content on DNA / Platinum on DNA, % from the total intracellular Pt amount: A2780, 24 h, 0.35 µM; for Platinum on DNA, % from the total intracellular Pt amount: rough estimate from Tables 2 and 3
Description: (§1) As for antitumor cisplatin and its direct derivatives, DNA is believed to be the target also for Pt(IV) prodrugs examined in the present work.
(§2) The cells were seeded in 150 cm^2 culture flasks at a density 1 × 10^7 cells/flask (67 000 cells/cm^2). After 48-h incubation, the cells were treated with the compounds (0.35 μM) for 24 h. The attached cells were washed twice with PBS (4 °C). As mentioned in the preceding paragraph, 75% of cells were used for analysis of platinum bound to DNA, remaining 25% were used for estimations of cellular accumulation of platinum. Cells were then lysed in DNAzol (DNAzol® genomic DNA isolation reagent, MRC) supplemented with RNase A (100 μg mL^−1). The genomic DNA was precipitated from the lysate with ethanol, dried and resuspended in water. The DNA content in each sample was determined by UV spectrophotometry. The DNA samples were digested in the presence of hydrochloric acid (11 M) using high-pressure microwave mineralization system (MARS5, CEM). The platinum content was determined by ICP-MS. Experiments were performed in triplicate and the values are the means ± SD.

DNA from HCT-116 cells = assay: as above; type: cell-based, human; settings: for Platinum content on DNA / Platinum on DNA, % from the total intracellular Pt amount: HCT-116, 24 h, 0.35 µM; for Platinum on DNA, % from the total intracellular Pt amount: rough estimate from Tables 2 and 3
Description: as §1, §2

[2] = test system: A2780 human ovarian carcinoma cells; assay: MTT cytotoxicity, 72 h; type: cell-based; settings: for IC50: MTT, 72 h, platinum complexes
HCT-116 cells = assay: Cellular platinum accumulation/distribution by ICP-MS; type: cell-based, human; settings: for Total cellular platinum accumulation: HCT-116, 24 h exposure, 0.35 µM
Description: (§3) Cellular concentrations of platinum were determined by inductively coupled plasma mass spectrometry (ICP-MS) after 24 h of exposure to the complexes at the concentration of 0.35 µM.
(§4) Cellular uptake studies were also carried out to measure the accumulation of platinum species in cytosol and nucleus. […] The platinum levels in each pool were measured by ICP-MS. The extent of accumulation of both OA conjugated Pt(IV) prodrugs into the cytosol and nucleus fractions was markedly higher than that of cisplatin or Pt(IV)diAc.
(§5) The cells were seeded in 150 cm^2 culture flasks at a density 1 × 10^7 cells/flask (67 000 cells/cm^2). After 48-h incubation, the cells were treated with the compounds (0.35 μM) for 24 h. The attached cells were washed twice with PBS (4 °C). Seventy-five percent of cells were used for analysis of platinum bound to DNA, remaining 25% were used for estimations of cellular accumulation of platinum. Cell pellets were digested by a high-pressure microwave digestion system (MARS5, CEM) with HCl to give a fully homogenized solution, and final platinum content was determined by ICP-MS. The analysis with the aid of ICP-MS was performed using Agilent 7500 (Agilent, Japan) or Thermo Optek X Series.
(§6) A2780 cells were seeded in 100 mm tissue culture dishes (3 × 10^6 cells) and grown for 48 h to 80–90% confluence. Cells were harvested after 24 h of treatment. Concretely, the dishes were washed two times with ice-cold PBS and the cells scraped into tubes and centrifuged for 10 min at 0 °C (200 g). The pellets were resuspended in the lysis buffer [Tris·HCl (10 mM, pH 8.0), KCl (60 mM), EDTA (1.2 mM), DTT (1 mM), phenylmethanesulfonyl fluoride (PMSF, 0.1 mM), NP-40 (0.04%)] for 10 min on ice and centrifuged for 4 min at 0 °C (800 g). Cytosolic fraction was separated for platinum ICP-MS analysis, and protein concentration was determined by Bradford assay. The pellets were rinsed with the above lysis buffer without PMSF and NP-40 and centrifuged for another 4 min at 0 °C (300 g). The pellets were resuspended in 50 µL nuclear extraction buffer [Tris·HCl (20 mM, pH 8.0), NaCl (420 mM), MgCl2 (0.7 mM), EDTA (0.25 mM), glycerol (25%)] and incubated for 30 min at 4 °C, continuously mixed on end-over-end roller, and then centrifuged for 15 min at 0 °C (13000 g). Protein concentration in nuclear extracts was determined by the Bradford assay, and stored at −80 °C until analysis.

A2780 cells = assay: as above; type: cell-based, human; settings: for Platinum in cytosol / Platinum in nucleus: A2780, 24 h; for Platinum in cytosol / Platinum in nucleus / Total cellular platinum accumulation: 0.35 µM; for Total cellular platinum accumulation: A2780, 24 h exposure
Description: as §3, §4, §5, §6

SMILES | Activity of DNMT enzymes ([1]; HCT-116, 1.0 µM) | Platinum content on DNA (DNA from A2780 cells) [pg Pt/µg DNA] | Platinum on DNA, % from the total intracellular Pt amount (DNA from A2780 cells) [%] | Platinum content on DNA (DNA from HCT-116 cells) [pg Pt/µg DNA] | Platinum on DNA, % from the total intracellular Pt amount (DNA from HCT-116 cells) [%] | IC50 [2] [nM] | Total cellular platinum accumulation (HCT-116 cells) [ng Pt/10^6 cells] | Platinum in cytosol (A2780 cells) [pg Pt/µg protein] | Platinum in nucleus (A2780 cells) [pg Pt/µg protein] | Total cellular platinum accumulation (A2780 cells) [ng Pt/10^6 cells] | further results
CC(=O)[O][Pt]([NH2])([NH2])([Cl])([Cl])[O]C(C)=O [Pt(IV)diAc, cis, cis, trans-[Pt(IV)(NH3)2Cl2(Ac)2]] | no significant effect | 1.1 ± 0.4 | 1.9 | 1.3 ± 0.1 | 2.0 | 5300 ± 1000 | 0.19 ± 0.04 | 3.0 ± 0.4 | 3.0 ± 0.5 | 0.45 ± 0.09 | 
N.N.[Cl][Pt][Cl] [cisplatin, reference compound] | no significant effect | 1.5 ± 0.6 | 2.0 | 1.6 ± 0.2 | 2.2 | 2800 ± 100 | 0.9 ± 0.1 | 5.5 ± 0.9 | 3.0 ± 0.7 | 0.8 ± 0.2 | Activity of DNMT enzymes ([1]; HCT-116, 30 µM): no significant effect
CCCCCCCC(=O)[O][Pt]([NH2])([NH2])([Cl])([Cl])[O]C(=O)CCCCCCC [Pt(IV)diOA, cis, cis, trans-[Pt(IV)(NH3)2Cl2(OA)2]] | enhanced activity of DNMT enzymes | 43.3 ± 5.3 | 13.0 | 123.1 ± 5.1 | 11.9 | 41 ± 1 | 29.2 ± 0.3 | 138 ± 12 | 173 ± 15 | 12.9 ± 0.3 | Activity of DNMT enzymes ([1]; HCT-116, 0.5 µM): enhanced activity of DNMT enzymes; Increase of DNA platination vs. cisplatin (DNA from A2780 cells; A2780, Fig. 2A): 28 x; Increase of DNA platination vs. Pt(IV)diAc (DNA from A2780 cells; A2780, Fig. 2C): 39 x; Increase of DNA platination vs. cisplatin (DNA from HCT-116 cells; HCT-116, Fig. 2B): 77 x; Increase of DNA platination vs. Pt(IV)diAc (DNA from HCT-116 cells; HCT-116, Fig. 2D): 95 x; Increase of cytotoxicity vs. cisplatin ([2]; A2780, Fig. 2A): 68 x; Increase of cytotoxicity vs. Pt(IV)diAc ([2]; A2780, Fig. 2C): 129 x; Increase of cellular accumulation vs. cisplatin (HCT-116 cells; HCT-116, Fig. 2B): 34 x; Increase of cellular accumulation vs. Pt(IV)diAc (HCT-116 cells; HCT-116, Fig. 2D): 153 x; Increase of cellular accumulation vs. cisplatin (A2780 cells; A2780, Fig. 2A): 16 x; Increase of cellular accumulation vs. Pt(IV)diAc (A2780 cells; A2780, Fig. 2C): 29 x
